Measured values: patent US20120252721A1 (priority 2011, published 2012)

Columns and labels:
HCV genotype 2a = assay: Genotype 2a assay (NS5A-intergenotypic luciferase replicon / genotype 2a infectious virus assay); assay type: cell-based; settings: Hepatitis C virus, read-out: EC50 2a
Excerpt: The nucleotide sequences of the NS5A region of genotype 2a (GenBank Accession # AB047639), genotype 3a (GenBank Accession #D17763), and genotype 4a (GenBank Accession# DQ418788) were synthesized by an outside vendor. The NS5A region of each of these genotypes included the first 11 amino acids of the protease recognition sequence of genotype 1b, as well as the last 10 amino acids of genotype 1b. The NS5A gene cassettes were excised with site specific restriction endonucleases and ligated into a ZS11-luciferase genotype 1b backbone (backbone contains the genotype 1b NS3 protease, NS4a, NS4b, and NS5b coding regions) with similarly cut restriction enzyme sites. Thus, the newly constructed plasmid contains a genotype 2a-, 3a- or 4a-specific NS5A gene within the 1b-replicon.
These new intergenotypic plasmids were used to establish stable cell lines. RNA was generated from the NS5A intergenotypic plasmids and used in conjunction with a lipofectin reagent to transfect a cured Huh7 cell line. Transfected cells were selected for with G418. After selection has occurred the stable cell lines were propagated, tested for luciferase activity, and RT-PCR with genotype specific primers (either 1a, 2a, 3a, or 4a). Stable cell lines containing the intergenotypic replicon were then fully sequenced and analyzed for proper expression of NS3, NS5A and NS5B proteins.
Drug titration analysis was performed using the luciferase replicon assay described herein.
The genotype 2a infectious virus assay measures the ability of a test compound to inhibit HCV replication in cell culture after 5 days of treatment at the time of HCV genotype 2a virus infection of a permissive human hepatoma cell line (HPC cells). The inhibition of HCV replication was measured by quantification of HCV core protein expression by an enzyme-linked immunosorbent assay (ELISA). Briefly, HPC cells were grown in DMEM containing glucose, L-glutamine and sodium pyruvate, 10% FBS, 100 IU/mL penicillin, 100 μg/mL streptomycin, 2 mM GlutaMAX, and non-essential amino acids. GlutaMAX was obtained from Invitrogen, Corp.; all other media reagents were obtained from Mediatech, Inc. For dose-response testing, ninety-six-well plates were seeded with HPC cells at a density of 2.5×10^3 cells/well in a volume of 50 μL, and incubated at 37° C./5% CO2. Three hours after plating, 50 μL of ten 5-fold serial dilutions of compound and 100 μL of genotype 2a virus were added, and cell cultures were incubated at 37° C./5% CO2. In all cases, mock infected HPC cells served as negative control. At 16 hours post treatment and infection, the virus inoculum was removed by aspiration. The cultures were treated at the same final concentrations of drug diluted in media and incubated for 4 additional days at 37° C./5% CO2. Subsequently, the core ELISA was performed as follows. The plates were fixed for 90 seconds with acetone/methanol (1:1, v/v), washed three times with KPL wash solution (KPL, Inc.), blocked for 1 hr at room temperature with TNE buffer containing 10% FBS and then incubated for 2 hr at 37° C. with the anti-HCV core mouse monoclonal antibody (Thermo Scientific) diluted in the same buffer. After washing three times with KPL wash solution, the cells were incubated for 1 hr at 37° C. with an anti-mouse immunoglobulin G-peroxidase conjugate in TNE/10% FBS. After washing as described above, the reaction was developed with O-phenylenediamine (Invitrogen). The reaction was stopped after 30 min with 2 NH2SO4, and absorbance was read at 490 nm in a Victor^3V 1420 multilabel counter (Perkin Elmer) and EC50 concentrations were determined using Microsoft Excel and XLfit 4.1 software.
The HCV luciferase replicon assay measures the ability of a test compound to inhibit HCV replication in cell culture after 3 days of treatment in a human hepatoma cell line (Huh-7) bearing an HCV replicon containing a luciferase-neomycin phosphotransferase fusion gene. […]

[1] = system: HCV genotype 1b replicon, NS5B C316Y; assay: Luciferase replicon transient transfection assay, genotype 1b NS5B C316Y; assay type: cell-based, hepatitis C virus
Procedure: The luciferase replicon transient transfection assay measures the ability of a test compound to inhibit the replication of a transiently-transfected HCV luciferase-bearing wild-type or mutant replicon in cured human hepatoma cells (Huh7.5). The inhibition of HCV replication was measured by quantification of luciferase protein expression. This assay has been validated using a panel of genotype 1a and 1b replicons bearing mutations known to be associated with resistance to BMS-790052. Briefly, subconfluent Huh7.5 cells were electroporated with 10 μg of wild-type or mutant luciferase-bearing HCV replicon RNA. The cells were then seeded in 96-well opaque white plates at 3×10^4 cells/well in 150 μL/well and incubated for 4 hrs at 37° C./5% CO2. […] The plates were agitated on a rotating platform at room temperature for 3 min and read in a Victor^3V microplate reader (Perkin-Elmer) using a 700 nm cut-off filter with a 1 sec read time. EC50 values were calculated from dose response curves from the resulting best-fit equations determined by Microsoft Excel and XLfit 4.1 software.
To determine the replication capacity of each mutant relative to the wild-type parental replicon, transfected cells were plated on two plates and were not treated with compound. Luciferase activity was measured at time points of 4 hrs and 4 days after plating for each replicon. […]

Row | Structure (SMILES) | EC50 (HCV genotype 2a) [pM] | EC50 ([1]; Hepatitis C virus, genotype 1b, NS5B mutation C316Y (confers resistance to Benzofuran/Benzothiadiazine)) [pM] | Ratio ([1]; {})
1 | COC(=O)N[C@H](C(=O)N1CCC[C@H]1c1ncc(-c2ccc(-c3csc4c(-c5cnc([C@@H]6CCCN6C(=O)[C@@H](NC(=O)OC)C(C)C)[nH]5)csc34)cc2)[nH]1)C(C)C [Compound A15, [(S)-1-((S)-2-{4-[4-(6-{2-[(S)-1-((S)-2-methoxycarbonylamino-3-methyl-butyryl)-pyrrolidin-2-yl]-3H-imidazol-4-yl}-thieno[3,2-b]thiophen-3-yl)-phenyl]-1H-imidazol-2-yl}-pyrrolidine-1-carbonyl)-2-methyl-propyl]-carbamic acid methyl ester] | < 100 |  | 
2 | COC(=O)N[C@H](C(=O)N1CCC[C@H]1c1nc2cc(-c3csc4c(-c5ccc(-c6cnc([C@@H]7CCCN7C(=O)[C@H](NC(=O)OC)c7ccccc7)[nH]6)cc5)csc34)ccc2[nH]1)C(C)C [Compound A169, [(S)-1-((S)-2-{6-[6-(4-{(S)-2-[1-((R)-2-methoxycarbonylamino-2-phenyl-acetyl)-pyrrolidin-2-yl]-3H-imidazol-4-yl}-phenyl)-thieno[3,2-b]thiophen-3-yl]-1H-benzoimidazol-2-yl}-pyrrolidine-1-carbonyl)-2-methyl-propyl]-carbamic acid methyl ester] |  | 2.3 | 1.37
